Values of other authors in US7153867B2, “Use of nitrogen substituted thalidomide analogs for the treatment of macular degenerator” (Celgene Corporation, priority 2001, dated 2006).

System: vascular endothelial cell proliferation
Settings: in vitro; endothelial versus tumor cell proliferation

CO[C@@H]1[C@H](OC(=O)NC(=O)CCl)CC[C@]2(CO2)[C@H]1[C@@]1(C)O[C@@H]1CC=C(C)C [AGM-1470]
half-maximal inhibition of vascular endothelial cell proliferation at lower concentration than tumor cell proliferation: 4 logs
